The first assay concerns the target human RIP1 kinase domain (2-375) (Homo sapiens (Human), UniProt Q13546). Description: biochemical. Format: biochemical. The note with it: Table 1; apparent Ki (Morrison tight-binding fit); 50 nM RIP1 kinase domain, 50 uM ATP, 2 hours incubation; read-out: RIP1 Ki. The method, boiled down: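 Ki^app comes from Morrison tight-binding fits of fractional activity versus compound concentration. Activity was read as ADP production, via tracer displacement lowering fluorescence polarization (633 nm laser). Conditions: 2 h, 50 nM insect-cell-expressed enzyme, 50 uM ATP, 30 mM MgCl2, 1 mM DTT, 0.5% DMSO, pH 7.5 Hepes.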
Sequence of human RIP1 kinase domain (2-375) (Q13546 2-375): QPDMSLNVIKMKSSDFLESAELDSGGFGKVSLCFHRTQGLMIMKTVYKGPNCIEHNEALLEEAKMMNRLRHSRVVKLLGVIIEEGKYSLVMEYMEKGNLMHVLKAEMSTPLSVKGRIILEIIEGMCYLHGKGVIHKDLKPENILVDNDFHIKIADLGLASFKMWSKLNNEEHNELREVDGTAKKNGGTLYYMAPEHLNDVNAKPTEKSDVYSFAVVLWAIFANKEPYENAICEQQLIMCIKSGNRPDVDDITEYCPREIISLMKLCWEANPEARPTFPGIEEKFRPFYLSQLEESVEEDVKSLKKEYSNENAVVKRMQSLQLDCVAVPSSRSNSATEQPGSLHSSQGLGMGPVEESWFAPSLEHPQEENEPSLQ
In the case of `CN1C(=O)C(NC(=O)c2nnc(Cc3ccccc3)[nH]2)CCn2nc(C(F)(F)F)cc21` (stereo not drawn) [Example 30, 5-benzyl-N-[4-methyl-5-oxo-2-(trifluoromethyl)-7,8-dihydro-6H-pyrazolo[1,5-a][1,3]diazepin-6-yl]-4H-1,2,4-triazole-3-carboxamide], the Ki worked out at 208 nM.
Consider `Cc1cnn2c1N(C)C(=O)C(NC(=O)c1nnc(Cc3ccccc3)[nH]1)CC2` (stereo not drawn) [Example 31, 5-benzyl-N-(3,4-dimethyl-5-oxo-7,8-dihydro-6H-pyrazolo[1,5-a][1,3]diazepin-6-yl)-4H-1,2,4-triazole-3-carboxamide], for which the Ki worked out at 140 nM.
Regarding `CN1C(=O)[C@@H](NC(=O)c2n[nH]c3c2CCCC3)COc2ccccc21` [Example 32, (S)—N-(5-methyl-4-oxo-2,3,4,5-tetrahydrobenzo[b][1,4]oxazepin-3-yl)-4,5,6,7-tetrahydro-1H-indazole-3-carboxamide], the Ki stood at 3400 nM.
On the same count and under the same terms, with `CN1C(=O)[C@@H](NC(=O)c2n[nH]c3ccccc23)COc2ccccc21` [Example 33, (S)—N-(5-methyl-4-oxo-2,3,4,5-tetrahydrobenzo[b][1,4]oxazepin-3-yl)-1H-indazole-3-carboxamide] the figure was 3500 nM; with `CN1C(=O)[C@@H](NC(=O)c2n[nH]c3c2CC(C(F)(F)F)CC3)COc2ccccc21` (stereo partly drawn) [Example 34, N-((S)-5-methyl-4-oxo-2,3,4,5-tetrahydrobenzo[b][1,4]oxazepin-3-yl)-5-(trifluoromethyl)-4,5,6,7-tetrahydro-1H-indazole-3-carboxamide], 7.68 nM; with `CN1C(=O)[C@@H](NC(=O)c2ncc3ccc(C(F)(F)F)cn23)COc2ccccc21` [Example 35, N-[(3S)-5-methyl-4-oxo-2,3-dihydro-1,5-benzoxazepin-3-yl]-6-(trifluoromethyl)imidazo[1,5-a]pyridine-3-carboxamide], 8.74 nM.
The same measure, in the same setting: under `CN1C(=O)[C@@H](NC(=O)c2ncc3n2CC(C(F)(F)F)CC3)COc2ccccc21` (stereo partly drawn) [Example 36, N—((S)-5-methyl-4-oxo-2,3,4,5-tetrahydrobenzo[b][1,4]oxazepin-3-yl)-6-(trifluoromethyl)-5,6,7,8-tetrahydroimidazo[1,5-a]pyridine-3-carboxamide] stands 185 nM; under `CN1C(=O)[C@@H](NC(=O)c2ncn3ccc(C(F)(F)F)cc23)COc2ccccc21` [Example 37, N-[(3S)-5-methyl-4-oxo-2,3-dihydro-1,5-benzoxazepin-3-yl]-7-(trifluoromethyl)imidazo[1,5-a]pyridine-1-carboxamide], 5.08 nM.
In the case of `CN1C(=O)[C@@H](NC(=O)c2ncn3c2CC(C(F)(F)F)CC3)COc2ccccc21` (stereo partly drawn) [Example 38, N-[(3S)-5-methyl-4-oxo-2,3-dihydro-1,5-benzoxazepin-3-yl]-7-(trifluoromethyl)-5,6,7,8-tetrahydroimidazo[1,5-a]pyridine-1-carboxamide], the Ki amounted to 87.4 nM.
`CN1C(=O)[C@@H](NC(=O)c2n[nH]c3c2CCCCC3)COc2ccccc21` [Example 44, (S)-N-(5-methyl-4-oxo-2,3,4,5-tetrahydrobenzo[b][1,4]oxazepin-3-yl)-1,4,5,6,7,8-hexahydrocyclohepta[c]pyrazole-3-carboxamide]: the Ki stood at 3000 nM.
Take `CC1CCc2n[nH]c(C(=O)N[C@H]3CCc4cc(Cl)ccc4NC3=O)c2C1` (stereo partly drawn) [Example 46, N-((S)-7-chloro-2-oxo-2,3,4,5-tetrahydro-1H-benzo[b]azepin-3-yl)-5-methyl-4,5,6,7-tetrahydro-2H-indazole-3-carboxamide]: the Ki was found to be 135 nM.
Consider `CC(C)(C)C1CCc2[nH]nc(C(=O)N[C@H]3CCc4cc(Cl)ccc4NC3=O)c2C1` (stereo partly drawn) [Example 47, 5-(tert-butyl)-N-((S)-7-chloro-2-oxo-2,3,4,5-tetrahydro-1H-benzo[b]azepin-3-yl)-4,5,6,7-tetrahydro-1H-indazole-3-carboxamide], for which the Ki is 350 nM.
On the same count and under the same terms, under `CN1C(=O)[C@@H](NC(=O)c2n[nH]c3c2CCC3)COc2ccccc21` [Example 48, (S)-N-(5-methyl-4-oxo-2,3,4,5-tetrahydrobenzo[b][1,4]oxazepin-3-yl)-1,4,5,6-tetrahydrocyclopenta[c]pyra7.ole-3-carboxamide] stands 8600 nM.
The same measure, in the same setting: under `O=C(N[C@H]1CCc2cc(Cl)ccc2NC1=O)c1n[nH]c2c1CCC2` [Example 49, (S)-N-(7-chloro-2-oxo-2,3,4,5-tetrahydro-1H-benzo[b]azepin-3-yl)-1,4,5,6-tetrahydrocyclopenta[c]pyrazole-3-carboxamide] stands 7600 nM; under `CC12Cc3[nH]nc(C(=O)N[C@H]4CCc5cc(Cl)ccc5NC4=O)c3CC1C2` (stereo partly drawn) [Example 50, N-((S)-7-chloro-2-oxo-2,3,4,5-tetrahydro-1H-benzo[b]azepin-3-yl)-5a-methyl-1,4,4a,5,5a,6-hexahydrocyclopropa[f]indazole-3-carboxamide], 3900 nM.
For the molecule `CN1C(=O)[C@@H](NC(=O)c2ccc3c(n2)CCCC3)COc2ccccc21` [Example 51, (S)-N-(5-methyl-4-oxo-2,3,4.5-tetrahydrobenzo[b][1,4]oxazepin-3-yl)-5,6,7,8-tetrahydroquinoline-2-carboxamide], the Ki came to 8900 nM.
The same measure, in the same setting: with `CN1C(=O)[C@@H](NC(=O)c2nnc3ccc(Cl)nn23)COc2ccccc21` [Example 52, (S)-6-chloro-N-(5-methyl-4-oxo-2,3,4,5-tetrahydrobenzo[b][1,4]oxazepin-3-yl)-[l,2,4]triazolo[4,3-b]pyridazinc-3-carboxamide] the figure was 1200 nM.
Consider `CC1(C)CCc2c(C(=O)N[C@H]3CCc4cc(Cl)ccc4NC3=O)n[nH]c2C1` [Example 53, (S)-N-(7-chloro-2-oxo-2,3,4,5-tetrahydro-1H-benzo[b]azepin-3-yl)-6,6-dimethyl-4,5,6,7-tetrahydro-1H-indazole-3-carboxamide], for which the Ki was determined as 4500 nM.
Same read-out and setting: under `O=C(N[C@H]1COc2ccccc2NC1=O)c1n[nH]c2c1C1CC1CC2` (stereo partly drawn) [Example 54, N-((S)-4-oxo-2,3,4,5-tetrahydrobenzo[b][1,4]oxazepin-3-yl)-3,4,5,5a,6,6a-hexahydrocyclopropa[e]indazole-1-carboxamide] stands 7700 nM; under `CN1C(=O)[C@@H](NC(=O)c2n[nH]c3c2CC2CC2C3)COc2ccccc21` (stereo partly drawn) [Example 56, N-((S)-5-methyl-4-oxo-2,3,4,5-tetrahydrobenzo[b][1,4]oxazepin-3-yl)-1,4,4a,5,5a,6-hexahydrocyclopropa[f]indazole-3-carboxamide], 922 nM.
With `CC1CCc2[nH]nc(C(=O)N[C@H]3COc4ccccc4NC3=O)c2C1` (stereo partly drawn) [Example 57, 5-methyl-N-((S)-4-oxo-2,3,4,5-tetrahydrobenzo[b][1,4]oxazepin-3-yl)-4,5,6,7-tetrahydro-1H-indazole-3-carboxamide], the Ki amounted to 276 nM.
For `CN1C(=O)[C@@H](NC(=O)c2n[nH]c3c2C2CC2CC3)COc2ccccc21` (stereo partly drawn) [Example 59, N-((S)-5-methyl-4-oxo-2,3,4,5-tetrahydrobenzo[b][1,4]oxazepin-3-yl)-3,4,5,5a,6,6a-hexahydrocyclopropa[e]indazole-1-carboxamide], the Ki is 1700 nM.
As for `CC1CCc2noc(C(=O)N[C@H]3COc4ccccc4NC3=O)c2C1` (stereo partly drawn) [Example 62, 5-methyl-N-((S)-4-oxo-2,3,4,5-tetrahydrobenzo[b][1,4]oxazepin-3-yl)-4,5,6,7-tetrahydrobenzo[c]isoxazole-3-carboxamide], the Ki turned out to be 254 nM.
Regarding `CC1CCc2onc(C(=O)N[C@H]3COc4ccccc4NC3=O)c2C1` (stereo partly drawn) [Example 63, 5-methyl-N-((S)-4-oxo-2,3,4,5-tetrahydrobenzo[b][1,4]oxazepin-3-yl)-4,5,6,7-tetrahydrobenzo[d]isoxazole-3-carboxamide], the Ki stood at 740 nM.
In the case of `CN1C(=O)[C@@H](NC(=O)c2noc3c2CC(C(C)(C)C)CC3)COc2ccccc21` (stereo partly drawn) [Example 64, 5-(tert-butyl)-N-((S)-5-methyl-4-oxo-2,3,4,5-tetrahydrobenzo[b][1,4]oxazepin-3-yl)-4,5,6,7-tetrahydrobenzo[d]isoxazole-3-carboxamide], the Ki came to 73.5 nM.

The assay is the same for the next values; noted with them: read-out: RIP1 Ki.
`CC1CCc2n[nH]c(C(=O)N[C@H]3COc4ccccc4N(C)C3=O)c2C1` (stereo partly drawn) [Example 45, 5-methyl-N-((S)-5-methyl-4-oxo-2,3,4,5-tetrahydrobenzo[b][1,4]oxazepin-3-yl)-4,5,6,7-tetrahydro-2H-indazole-3-carboxamide]: the Ki is 62.6 nM.
Take `C[C@H]1CCc2[nH]nc(C(=O)N[C@H]3COc4ccccc4N(C)C3=O)c2C1` [Example 55, (S)-5-methyl-N-((S)-5-methyl-4-oxo-2,3,4,5-tetrahydrobenzo[b][1,4]oxazepin-3-yl)-4,5,6,7-tetrahydro-1H-indazole-3-carboxamide]: the Ki was found to be 103 nM.
Same read-out and setting: with `CN1C(=O)[C@@H](NC(=O)c2n[nH]c3c2C[C@@H](C(C)(C)C)CC3)COc2ccccc21` [Example 58, (S)-5-(tert-butyl)-N-((S)-5-methyl-4-oxo-2,3,4,5-tetrahydrobenzo[b][1,4]oxazepin-3-yl)-4,5,6,7-tetrahydro-1H-indazole-3-carboxamide] the figure was 121 nM; with `C[C@@H]1CCc2[nH]nc(C(=O)N[C@H]3COc4ccccc4N(C)C3=O)c2C1` [Example 60, (R)-5-methyl-N-((S)-5-methyl-4-oxo-2,3,4,5-tetrahydrobenzo[b][1,4]oxazepin-3-yl)-4,5,6,7-tetrahydro-1H-indazole-3-carboxamide], 15.6 nM.
Take `CN1C(=O)[C@@H](NC(=O)c2n[nH]c3c2C[C@H](C(C)(C)C)CC3)COc2ccccc21` [Example 61, (R)-5-(tert-butyl)-N-((S)-5-methyl-4-oxo-2,3,4,5-tetrahydrobenzo[b][1,4]oxazepin-3-yl)-4,5,6,7-tetrahydro-1H-indazole-3-carboxamide]: the Ki was 48 nM.
